Laboratory results reported in patent US9963463B2, “Urea-substituted indanes as P38 map kinase inhibitors” (TORRENT PHARMACEUTICALS LIMITED, priority 2014, dated 2018).

Assays:
[1] = tested on: cigarette smoke induced inflammatory cell accumulation in BAL Fluid; assay: Acute guinea pig model of airway inflammation (tobacco smoke), BAL neutrophils; format: in vivo, Guinea pigs; conditions: acute TS model, 6 mg/ml, aerosol exposure 75 minutes
Text: Observation: It was observed that compound of present invention was found effective in inhibition of neutophil influx, an index of pulmonary inflammation. […] B. (I) Efficacy Studies in Acute Guinea Pig Model of Airway Inflammation
Guinea pigs were exposed to tobacco smoke (TS) in an acrylic chamber. Animals were exposed to TS from 5, 10, 15 cigarettes on day 1, day 2, day 3 respectively. From day 4 onwards till day 11, animals were exposed to TS from 15 cigarettes per day. […]
Lung delivery of test compound was achieved by whole body aerosol exposure for 75 minutes in a chamber. […] A total quantity of 7.0 ml of either vehicle or test compound formulation (suspension formulation with D90<5μ, with Malvern Mastersizer®) was nebulized in chambers to respective groups over 75 mins period. […]
(§1) Lavage fluid was separated from cells by centrifugation and supernatant separated. […] Cells in aliquot were stained using Turk solution and total cell numbers were calculated by counting Turk stained aliquot under microscope using haemocytometer.
The residual cell suspension was resuspended and slides prepared using cyto centrifuge technique (Cytospin 4, Thermo Shandon). […] Up to 300 cells were counted and differentiated using standard morphometric techniques under light microscopy. All results are presented at individual data for each animal and mean value calculated for each group. […]

[2] = biological target: T1, purified recombinant human p38 alpha MAPK (Homo sapiens, UniProt Q16539); assay: Inhibition of p38 alpha MAPK activity, TR-FRET kinase assay; format: biochemical; conditions: Concentration 1 μM; read-out: P38α Inhibition
T1 construct: purchased Millipore, USA
T1 sequence (Q16539 whole entry): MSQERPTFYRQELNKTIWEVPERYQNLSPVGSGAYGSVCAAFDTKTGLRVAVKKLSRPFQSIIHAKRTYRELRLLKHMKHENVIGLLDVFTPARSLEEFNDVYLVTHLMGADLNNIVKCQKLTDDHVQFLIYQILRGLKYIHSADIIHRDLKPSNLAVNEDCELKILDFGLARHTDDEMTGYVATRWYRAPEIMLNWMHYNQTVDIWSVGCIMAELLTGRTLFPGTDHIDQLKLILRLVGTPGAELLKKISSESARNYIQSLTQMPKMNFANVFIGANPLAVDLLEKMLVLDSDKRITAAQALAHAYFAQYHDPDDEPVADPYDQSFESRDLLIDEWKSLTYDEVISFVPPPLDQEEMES
Summary of the method: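 Recombinant human p38α preincubated 15 min at RT with compound (0.5–1.0% DMSO), then 30 nM biotinylated GST-ATF2 and 100 μM ATP added for 60 min at RT. Stopped with EDTA; Eu-anti-phospho-ATF2 and APC-streptavidin detection, 60 min. % inhibition from 665/615 nm TR-FRET ratio.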

[3] = tested on: BALF fluid inflammatory cell influx and lung function; assay: Chronic model of COPD in guinea pigs (tobacco smoke and LPS, 18 weeks); format: in vivo; conditions: guinea pig, chronic TS/LPS COPD model, 3 mg/ml, aerosol exposure 50 minutes
Text: Observation: It was observed that compound of present invention was found effective in inhibition of neutrophil influx, an index of pulmonary inflammation in guinea pig model of airway inflammation. […] (II) Efficacy Studies in Chronic Model of COPD in Guinea Pigs.
Guinea pigs were exposed to tobacco smoke (TS) and Lipopolysaccharide (LPS) in an acrylic chamber. Exposure to TS and LPS is given in following manner in a week for a total of 18 weeks.
Lung delivery of test material was achieved by whole body aerosol exposure for 50 minutes in a chamber. Guinea pig were divided in different dose groups and exposed to either vehicle or compound no 43 (3 mg/ml). A total quantity of 7.0 ml of either vehicle or compound no 43 (suspension formulation with D90<5μ, with Malvern Mastersizer®) was nebulized in chambers to respective groups over 50 mins period. Compound no 43 or vehicle was administered 2 hr prior to TS/LPS exposure once daily from week 9 to week 18. Control animals were exposed to room air instead of TS and PBS instead of LPS. Lung function and bronchoalveolar lavage (BAL) for each animal was performed 24 hr post last TS exposure. […]
as §1
The residual cell suspension was resuspended and slides prepared using cyto centrifuge technique (Cytospin 4, Thermo Shandon). […] Up to 300 cells were counted and differentiated using standard morphometric techniques under light microscopy.
All results are presented at individual data for each animal and mean value calculated for each group. Percentage inhibition for the neutrophil was calculated for compound no 43 treatment group against vehicle group. […]

CCS(=O)(=O)Nc1cc(C(C)(C)C)cc(NC(=O)Nc2ccc(OCCN3CCN(CC4CC4)C(=O)C3)c3c2CCC3)c1OC [Compound 43, N-(5-tert-butyl-3-{[(7-{2-[4-(cyclopropylmethyl)-3-oxopiperazin-1-yl]ethoxy}-2,3-dihydro-1H-inden-4-yl)carbamoyl]amino}-2-methoxyphenyl)ethanesulfonamide]
Effect on inflammatory cell influx Neutrophil (*10^6cells) ([1]; BAL fluid, Mean ± SEM): 0.8 ± 0.20 *10^6cells
Effect on inflammatory cell influx % inhib^n ([1]; neutrophil vs vehicle group): 57%
inhibition at 1 µM [2]: 80 to 100%
Neutrophil (*10^6cells) ([3]; BALF, once daily week 9 to 18, Mean ± SEM): 4.0 ± 0.70 *10^6cells
lung function parameters (FRC, RV, IC/TLC ratio, RV/TLC ratio) ([3]; FIGS. 1A, 1B, 2A, 2B): significantly improves lung function aspects
% inhib^n ([3]; neutrophil vs vehicle group): 32%
